Assay results as given in article PMC10045534, “Preparation and Evaluation of 6-Gingerol Derivatives as Novel Antioxidants and Antiplatelet Agents” (Antioxidants, 2023).
Where two headings read alike, the source gives them in different places. Each block holds one molecule with its values, some of them ahead of it.

Legend:
[1] = Kinetic aqueous solubility in PBS pH 7.4; type: physicochemical; conditions: PBS (pH 7.4), 37 °C, pH 7.4, aqueous buffer, kinetic from dmso stock, after 2 h at 37 °C in PBS, 500 μM target concentration, mean ± SEM, n = 3
Protocol: Preparative purifications over RP-HPLC were performed on a Kinetex XB C18 (5 μm, 250 × 21.2 mm) column on an Armen Spot Prep II integrated HPLC purification system (Gilson, Middleton, WI, USA) with dual-wavelength detection, with an adequately chosen combination of acetonitrile–water, and a flow rate of 15 mL/min. The purity of the compounds obtained was determined by RP-HPLC analyses on a system of two Jasco PU 2080 pumps, a Jasco AS-2055 Plus intelligent sampler connected to a JASCO LC-Net II/ADC equipped with a Jasco MD-2010 Plus PDA detector (Jasco International Co. Ltd., Hachioji, Tokyo, Japan) utilizing a Kinetex C-18 (5 μm, 250 × 4.6 mm) column (Phenomenex Inc., Torrance, CA, USA) and applying a gradient of 30%–100% aqueous AcN in 30 min followed by 100% ACN for 10 min with a flow rate of 1 mL/min. Analysis of samples from the PAMPA and kinetic solubility assays was performed the same way, by using 3-point calibrations and integrating each compound at its UV absorption maximum.
In a 96-well polypropylene plate (Greiner Bio-One, Kremsmünster, Austria), 15 μL stock solutions were added to 285 μL PBS (pH 7.4) to make starting donor solution with 500 μM as target concentration. For each sample, 3 replicates were measured. The samples were covered and shaken at 37 °C, 300 rpm for 2 h (Heidolph Titramax 1000, Heidolph Instruments GmbH & Co. KG, Schwabach, Germany). After that, each sample was transferred into a filter plate (MSSBLPC, Multiscreen Filter plate, Merck kGaA) and filtered (Vaccum Manifold, Merck kGaA, Darmstadt, Germany). The filtrates were transferred into HPLC vials, and acetonitrile (AcN) was added to aliquot to avoid precipitation. The final solvent ratio was AcN:PBS (70:30). Filtrate concentration was determined by HPLC-UV (see Section 2.1) using 3-points calibration.

[2] = Oxygen radical absorbance capacity (ORAC); conditions: 1 µM sample; mean ± SEM, n = 3
Protocol: AAPH ((2,20-Azobis(2-methyl-propionamidine) dihydrochloride) free radical and Trolox standard were purchased from Sigma-Aldrich Hungary. Fluorescein was purchased from Fluka Analytical, Tokyo, Japan. ORAC assay was carried out In a 96-well microplate based on the method from previous study. Briefly, 20 µL of the samples (1 µM final concentration, dissolved in phosphate buffer, pH = 7.4, containing 1% MeOH) were mixed with 60 µL of AAPH (12 mM final concentration, dissolved in phosphate buffer, pH = 7.4) and 120 µL of fluorescein solution (70 nM final concentration, dissolved in phosphate buffer), then the fluorescence was measured (excitation at λ = 485 nm, and emission at λ = 520 nm) through 3 h with 1.5-min cycle intervals with a BMG Labtech FluoStar Optima plate-reader. All experiments were carried out in triplicate, and Trolox was used as standard. The antioxidant capacity is expressed as Trolox Equivalent (TE), as calculated using GraphPad Prism 8.0 (La Jolla, CA, USA).

[3] = DPPH free radical scavenging assay; conditions: for IC50: 30 min, room temperature, MeOH, mean ± SEM, n = 2, read-out: DDPH IC50
Protocol: (§1) All bioactivity data processing, including the calculation of inhibition percentage, mean and corresponding standard error of the mean (SEM), and IC50 values, was performed by GraphPad Prism 8.0 (La Jolla, CA, USA). IC50 values were calculated from the sigmoidal dose–response curves obtained by the log(inhibitor) vs. response and variable slope (DPPH assay) or the log(inhibitor) vs. normalised response and variable slope nonlinear regression model. On the results obtained, no statistical evaluation was performed; instead, differences greater than two-fold were considered relevant. Plotting of the antiplatelet and COX-1 inhibitory IC50 values and the linear regression of the data was performed by Microsoft Excel.
DPPH (1,10-diphenyl-2-picrylhydrazyl) was purchased from Thermo Fisher Scientific. DPPH free radical scavenging assay was performed with some modifications based on the method by previous study. Briefly, in a 96-well microplate, microdilutions of samples (100 µL, starting from 200 µM in HPLC grade MeOH) were made and 100 µL of DPPH reagent (100 µM in MeOH) was added. After 30 min at room temperature in the dark, the absorbance was measured at 550 nm using a FluoStar Optima plate reader (software version 2.20R2, BMG Labtech Ortenberg, Germany). For the blank control, MeOH was used. The scavenging activity was calculated as Inhibition (%) = (A0 − As)/A0 × 100, and IC50 values were calculated by GraphPad Prism 8.0 (La Jolla, CA, USA).

washed human platelets = assay: Arachidonic acid-induced platelet aggregation (turbidimetric aggregometer); type: cell-based; conditions: washed human platelets treated 3 min, then arachidonic acid (100 μM), mean ± SEM, n = 3, read-out: Antiplatelet IC50
Protocol: as §1
Human platelet suspension (3 × 10^8/mL in Tyrode’s buffer) was prepared as previously described. The protocol for this study was approved by the institutional review board of Kaohsiung Medical University Hospital (Kaohsiung City, Taiwan). Platelets pre-treated with DMSO (vehicle control) or test compounds were stimulated with arachidonic acid (AA), and platelet aggregation was measured using turbidimetric aggregometer (Chrono-Log Co., Havertown, PA, USA) at 37 °C under stirring conditions (1200 rpm).

[4] = Peroxynitrite scavenging (pyrogallol red); conditions: % inhibition at 500 µM; mean ± SEM, n = 3
Protocol: Peroxynitrite was synthesised by a continuous flow system using syringe pumps as published previously. Briefly, an acidic solution of hydrogen peroxide (0.6 M H2O2, 0.7 M HCl) was pumped to a junction alongside of sodium nitrite solution (0.6 M) at a flow rate of 1.5 mL/min. After passing 10 cm of tubing, it was mixed with a sodium hydroxide solution (1.5 M), also pumped at 1.5 mL/min. The resulting peroxynitrite solution was a bright yellow colour. The tubing around the reaction was submerged in ice. The concentration of the solution was determined by spectrophotometry and was adjusted to 30 mM with 0.1 M NaOH solution.
In a 96-well microplate 245 µL of pyrogallol red (100 µM final concentration, dissolved in 0.1 M glycine buffer) was mixed with 50 µL of sample (0.5 mM final concentration, dissolved in DMSO) and 5 µL ONOO^– solution (500 µM final concentration, freshly prepared). After mixing and keeping it at room temperature for 30 min the absorbance was measured at 550 nm using a FluoStar Optima plate reader (software version 2.20R2, BMG Labtech, Ortenberg, Germany).

xanthine oxidase (XO) = target: T1, xanthine oxidase (XO) (Bos taurus, UniProt P80457); assay: Xanthine oxidase inhibition, spectrophotometric; type: biochemical; conditions: for XO Inhibition (%): % inhibition at 100 µM, mean ± SEM, n = 3; for inhibition at 100 µM: read-out: XO Inhibition (%)
T1 construct: purchased Sigma (Merck KGaA)
Protocol: The xanthine oxidase (XO) inhibitory activity of the compounds was determined using continuous spectrophotometric rate based on a modified protocol of Sigma. […]. In a 96-well plate, the final reaction mixture consisted of 10 µL of sample (dissolved in DMSO, […] stock solution, 100 µM final), 100 µL of xanthine solution (0.15 mM, pH = 7.4), 140 µL of buffer (potassium phosphate, pH = 7.5) and 50 µL of XO (0.2 units/mL). When measuring the enzyme activity, control buffer was used in place of the sample. Allopurinol was applied as a control. The reaction was initiated by the automatic addition of 50 µL of XO solution. The absorbance of XO-induced uric acid production from xanthine was measured at 290 nm for 3 min in a 96-well plate on a BMG Labtech FluoStar Optima plate reader. The inhibitory percentage values were calculated by using Graph Pad Prism 8.0 (La Jolla, CA, USA).

COX-1 enzyme = target: T2, COX-1 enzyme (Ovis aries, UniProt P05979); assay: COX-1 inhibitor screening kit, fluorometric (BioVision K548-100); type: biochemical; conditions: for LLE(COX-1): LLE = pIC50 − logPpredicted; for IC50: mean ± SEM, n = 2
T2 construct: purchased BioVision (via VWR International Kft.) K548-100
T2 sequence (P05979 25-600): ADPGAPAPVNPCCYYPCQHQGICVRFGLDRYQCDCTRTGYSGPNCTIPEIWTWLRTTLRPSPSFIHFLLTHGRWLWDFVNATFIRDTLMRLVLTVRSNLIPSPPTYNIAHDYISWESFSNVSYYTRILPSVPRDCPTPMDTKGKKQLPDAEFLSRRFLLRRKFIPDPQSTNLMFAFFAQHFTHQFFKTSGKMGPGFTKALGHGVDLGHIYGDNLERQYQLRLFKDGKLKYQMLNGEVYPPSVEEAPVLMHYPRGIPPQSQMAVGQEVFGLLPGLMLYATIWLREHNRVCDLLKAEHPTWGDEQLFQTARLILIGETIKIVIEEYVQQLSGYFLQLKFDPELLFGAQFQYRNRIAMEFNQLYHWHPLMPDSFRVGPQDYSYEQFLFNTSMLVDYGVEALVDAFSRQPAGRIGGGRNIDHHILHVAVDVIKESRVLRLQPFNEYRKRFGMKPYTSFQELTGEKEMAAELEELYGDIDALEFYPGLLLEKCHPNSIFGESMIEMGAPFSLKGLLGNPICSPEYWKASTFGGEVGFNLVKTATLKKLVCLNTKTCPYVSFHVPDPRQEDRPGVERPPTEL
Protocol: COX-1 inhibitory activity was tested based on the fluorometric method as described in BioVision’s COX-1 inhibitor screening kit leafkit (K548-100, BioVision, CA, USA). Sample solutions were prepared by dissolving in DMSO and subsequently buffer, to get desired concentrations. In a 96-well white plate (655101, F-bottom, Grenier bio-one, Germany), 80 µL reaction mix (containing 76 µL assay buffer, 1 µL COX Probe, 2 µL COX cofactor, and 1 µL COX-1 enzyme) was added to 10 µL sample solution, DMSO and assay buffer to get test wells assigned for sample screen (S), negative control (N) and blank, respectively. An aliquot of 10 µL of arachidonic/NaOH solution was added to each well using a multi-channel pipette to initiate the reaction at the same time, and the fluorescence of each well was measured kinetically at Ex/Em 550/610 nm, at 25OC for 10 min using a FluoStar Optima plate reader (BMG Labtech, Ortenberg, Germany). The COX inhibitory activity of SC560, a standard inhibitor, was also determined.
The change in fluorescence between two points, T1 and T2 were determined, and relative inhibition was calculated according to the following equation:% Inhibition = (ΔN − ΔS)/ΔN × 100 (1) where N is the absorbance of the negative control, and S is that of the sample.
Dose-effect studies on the compounds were used to determine the concentration that inhibits 50% of the enzyme activity. The sigmoidal dose–response model was obtained by using the software GraphPad Prism 8.0 (La Jolla, CA, USA), and these were used to determine the IC50 values of the compounds.

T1 sequence (P80457 2-1332 limits assumed): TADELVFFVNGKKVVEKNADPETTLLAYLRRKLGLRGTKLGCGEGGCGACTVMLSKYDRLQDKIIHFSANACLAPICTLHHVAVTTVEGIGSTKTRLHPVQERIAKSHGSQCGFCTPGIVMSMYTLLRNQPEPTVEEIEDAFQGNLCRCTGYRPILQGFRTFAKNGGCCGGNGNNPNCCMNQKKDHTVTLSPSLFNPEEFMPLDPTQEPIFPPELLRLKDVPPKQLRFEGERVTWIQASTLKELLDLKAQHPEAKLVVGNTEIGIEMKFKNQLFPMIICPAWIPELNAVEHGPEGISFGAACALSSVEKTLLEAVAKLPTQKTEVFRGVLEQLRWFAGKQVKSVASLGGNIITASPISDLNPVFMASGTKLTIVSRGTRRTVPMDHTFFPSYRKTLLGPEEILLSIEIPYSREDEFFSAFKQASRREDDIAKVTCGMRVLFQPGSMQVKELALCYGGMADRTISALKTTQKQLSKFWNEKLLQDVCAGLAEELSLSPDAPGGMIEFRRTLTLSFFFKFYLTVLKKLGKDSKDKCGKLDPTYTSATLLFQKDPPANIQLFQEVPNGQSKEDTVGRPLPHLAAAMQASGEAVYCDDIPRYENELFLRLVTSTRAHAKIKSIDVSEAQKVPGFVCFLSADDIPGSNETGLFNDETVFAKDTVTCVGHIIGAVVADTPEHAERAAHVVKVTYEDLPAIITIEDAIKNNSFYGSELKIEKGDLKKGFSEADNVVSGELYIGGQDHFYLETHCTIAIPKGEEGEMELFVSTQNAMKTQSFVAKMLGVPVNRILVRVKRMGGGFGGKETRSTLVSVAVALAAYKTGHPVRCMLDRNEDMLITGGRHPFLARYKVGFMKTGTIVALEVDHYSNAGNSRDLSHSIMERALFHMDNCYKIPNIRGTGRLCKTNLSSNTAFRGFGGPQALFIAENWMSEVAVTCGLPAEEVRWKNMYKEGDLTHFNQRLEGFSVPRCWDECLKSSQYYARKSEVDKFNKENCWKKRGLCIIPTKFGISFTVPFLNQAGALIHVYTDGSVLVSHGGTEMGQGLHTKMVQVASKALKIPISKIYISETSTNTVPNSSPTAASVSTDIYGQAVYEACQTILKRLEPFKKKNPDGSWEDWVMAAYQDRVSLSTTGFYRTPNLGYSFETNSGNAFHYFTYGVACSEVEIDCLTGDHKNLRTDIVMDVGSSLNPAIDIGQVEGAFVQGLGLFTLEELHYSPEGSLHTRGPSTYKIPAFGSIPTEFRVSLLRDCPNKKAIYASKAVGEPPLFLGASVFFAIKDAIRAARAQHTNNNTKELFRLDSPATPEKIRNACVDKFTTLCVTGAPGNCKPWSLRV

Compound: CCCCCC(=O)CC(=O)/C=C/c1ccc(O)c(OC)c1 [Compound 11C]
- solubility kinetic at 2 h [1]: 54 ± 1.3 µM

Compound: CCCCCC(=O)CC(=O)CCc1ccc(O)c(OC)c1 [Compound 13, 6-gingerdione]
- ORAC TE [2]: 2.60 ± 0.06 Trolox equivalents (TE)
- IC50 [3]: 10.9 ± 0.69 µM
- IC50 (washed human platelets): 3.6 ± 0.9 µM
- ONOO^– Scavenging (%) [4]: <5.0%
- XO Inhibition (%) (xanthine oxidase (XO)): <5.0%
- LLE(COX-1) (COX-1 enzyme): 1.53
- IC50 (COX-1 enzyme): 11.8 ± 5.4 µM

Compound: CCCCCC(=O)/C=C(O)/C=C/c1ccc(O)c(OC)c1 [Compound 11B]
- solubility kinetic at 2 h [1]: 54 ± 1.3 µM

Compound: CCCCCC(=O)CC(=O)/C=C/c1ccc(O)cc1 [Compound 12, (E)-1-(4-hydroxyphenyl)dec-1-ene-3,5-dione]
- ORAC TE [2]: 2.89 ± 0.49 Trolox equivalents (TE)
- DPPH scavenging activity (in words) [3]: inactive
- IC50 [3]: > 200 µM
- IC50 (washed human platelets; Platelet, 0.05 h): 71.7 ± 28.3 µM
- ONOO^– Scavenging (%) [4]: <5.0%
- inhibition at 100 µM (xanthine oxidase (XO)): < 5%
- IC50 (COX-1 enzyme): > 200 µM

Compound: CCCCCC(=O)CC(=O)/C=C/c1ccc(O)c(OC)c1 [Compound 11, 6-dehydrogingerdione]
- ORAC TE [2]: 1.98 ± 0.12 Trolox equivalents (TE)
- IC50 [3]: 9.04 ± 0.19 µM
- IC50 (washed human platelets): 4.1 ± 1 µM
- ONOO^– Scavenging (%) [4]: <5.0%
- XO Inhibition (%) (xanthine oxidase (XO)): <5.0%
- LLE(COX-1) (COX-1 enzyme): 1.14
- IC50 (COX-1 enzyme): 23.1 ± 9.3 µM

Compound: Oc1ncnc2[nH]ncc12 [allopurinol, reference compound]
- inhibition at 100 µM (xanthine oxidase (XO)): 98.8 ± 0.11%

Compound: CCCCC/C(O)=C/C(=O)/C=C/c1ccc(O)c(OC)c1 [Compound 11A]
- solubility kinetic at 2 h [1]: 54 ± 1.3 µM

Now from value to molecule:

- solubility kinetic at 2 h [1]: 315 ± 23.7 µM
Compound: CCCCC/C(O)=C/C(=O)CCc1ccc(O)c(OC)c1 [Compound 13A]

- solubility kinetic at 2 h [1]: 15.6 ± 0.1 µM
Compound: CCCCC/C(O)=C/C(=O)/C=C/c1ccc(O)cc1 [Compound 12A]

- solubility kinetic at 2 h [1]: 15.6 ± 0.1 µM
Compound: CCCCCC(=O)/C=C(O)/C=C/c1ccc(O)cc1 [Compound 12B]

- solubility kinetic at 2 h [1]: 15.6 ± 0.1 µM
Compound: CCCCCC(=O)CC(=O)/C=C/c1ccc(O)cc1 [Compound 12C]

- solubility kinetic at 2 h [1]: 315 ± 23.7 µM
Compound: CCCCCC(=O)/C=C(\O)CCc1ccc(O)c(OC)c1 [Compound 13B]

- solubility kinetic at 2 h [1]: 315 ± 23.7 µM
Compound: CCCCCC(=O)CC(=O)CCc1ccc(O)c(OC)c1 [Compound 13C]
